Measurements taken from patent EP4813403A1, “USE OF GLP-1R/GIPR DOUBLE-TARGET AGONIST IN PREPARING ANIMAL DRUG” (Hangzhou Zhongmeihuadong Pharmaceutical Co., Ltd., priority 2023, dated 2025).

How the values were obtained:
[1] = Pharmacokinetics in C57 mice; details: C57, mouse, in vivo
Description: After subcutaneous or intravenous administration to C57 mice, plasma was collected and the drug concentration in plasma was determined to illustrate the in vivo pharmacokinetic properties of the compound according to the present invention. […] 20.0 µL of thawed plasma sample was taken. 20 µL of 50% aqueous methanol solution (containing 100 ng mL^-1 Tolbutamide) and 60 µL of acetonitrile were added sequentially to precipitate protein. The mixture was vortexed for 5 minutes, and centrifuged at 4815 rpm for 8 minutes. 50.0 µL of the supernatant was taken, into which 50.0 µL of 0.5% aqueous formic acid solution was added. The mixture was vortexed for 5 minutes. 50 µL of the mixture solution was sampled and injected into the LC-MS/MS to determine the drug concentration in plasma. Based on the drug concentration in plasma of the compounds in C57 mice, the pharmacokinetic parameters were calculated by applying the software Winnolin 8.3 in a non-compartmental model, and the results were shown in Table 7 and Table 8 below. Table 7 Average Pharmacokinetic Parameters after Single Subcutaneous Administration to Mice

[2] = Repeated administration on male rats for 2 weeks (toxicity, toxicokinetics); assay type: in vivo, SD male rats
Description: 77 SD male rats (SPF grade) were selected and randomly divided into 10 groups based on body weight. Group 1 was the vehicle control group, including 5 animals. […] Group 5 to Group 7 were the groups administrated with the test substance 1; and Group 8 to Group 10 were the groups administrated with the test substance 2, each group including 8 animals, wherein 5 animals for primary test, and 3 animals for toxicokinetics test, and the administration dose was 1, 3 and 10 mg/kg respectively. Each of the above groups was continuously administered twice a week for 2 weeks (administrating at Day 1, Day 5, Day 8, Day 12 and Day 15).
During the experiment, the cage condition monitoring, detailed clinical observations, determination of the food consumption, determination of body weight, measurement of the blood biochemical and hematology indicator, investigation of the gross anatomy, weighing of the organ, studying on toxicokinetic were performed on all the groups of the animals.
Original data during each time period was tabulated. The average values and standard deviations and/or group change were calculated for each assay endpoint based on the group and sex. For each endpoint, the administrated group will be compared with the control group in the following aspect. A logarithmic conversion was performed to the endpoint data as desired prior to the start of the specific analyses.

[3] = in vivo

SMILES: CC[C@H](C)[C@H](NC(=O)[C@H](CC(C)C)NC(=O)[C@H](Cc1c[nH]c2ccccc12)NC(=O)[C@H](CCC(N)=O)NC(=O)[C@@H](NC(=O)[C@H](Cc1ccccc1)NC(=O)[C@H](C)NC(=O)[C@H](CCCCNC(=O)COCCOCCNC(=O)COCCOCCNC(=O)CC[C@H](NC(=O)CCCCCCCCCCCCCCCCCCC(=O)O)C(=O)O)NC(=O)[C@H](CCC(N)=O)NC(=O)[C@H](C)NC(=O)[C@@H](NC(=O)[C@H](CCCCN)NC(=O)[C@H](CC(=O)O)NC(=O)[C@H](CC(C)C)NC(=O)C(C)(C)NC(=O)[C@@H](NC(=O)[C@H](CO)NC(=O)[C@H](Cc1ccc(O)cc1)NC(=O)[C@H](CC(=O)O)NC(=O)[C@H](CO)NC(=O)[C@@H](NC(=O)[C@H](Cc1ccccc1)NC(=O)[C@@H](NC(=O)CNC(=O)[C@H](CCC(=O)O)NC(=O)C(C)(C)NC(=O)[C@@H](N)Cc1ccc(O)cc1)[C@@H](C)O)[C@@H](C)O)[C@@H](C)CC)[C@@H](C)CC)C(C)C)C(=O)N[C@@H](C)C(=O)NCC(=O)NCC(=O)N1CCC[C@H]1C(=O)N[C@@H](CO)C(=O)N[C@@H](CO)C(=O)NCC(=O)N[C@@H](C)C(=O)N1CCC[C@H]1C(=O)N1CCC[C@H]1C(=O)N1CCC[C@H]1C(=O)N[C@@H](CO)C(N)=O [Tirzepatide, reference compound]
- MRT ([1]; iv, MRT(0-t)): 11.4 h
- MRT ([1]; iv, MRT(0-∞)): 12 h
- MRT ([1]; sc, MRT(0-t)): 14.5 h
- MRT ([1]; sc, MRT(0-∞)): 15.3 h
- MTD ([2]; MTD for 2 weeks, rats): 2077 nmol/kg (MTD for 2 weeks)
- dose at which decrease of the body weight was observed after the first administration ([2]; SD male rats): ≥ 3 mg/kg
- Gross Anatomy ([2]; SD male rats, 1, 3, 10 mg/kg twice a week for 2 weeks): no abnormalities were found
- accumulation (toxicokinetic) ([2]; SD male rats, administered twice a week for 2 weeks): no substantial accumulation
- MTD at 336 h ([2]; Sprague-Dawley, rat, in vivo, SD male rats, administered twice a week for 2 weeks): ≥ 10 mg/kg
- Safety Window (based on dosage) ([2]; rat 2-week MTD versus efficacy dose): 416
- heart rate recovery time [3]: > 120 h
